In experiment [1] the test system is DSS-induced inflammatory bowel disease model in mice. Description: DSS-induced mouse inflammatory bowel disease model. The format is in vivo, C57BL/6 mice. Conditions: 50 mg/kg once a day, 5% DSS, day 8, compared with model group, FIG. 78. The procedure:
Experimental purpose: To test the immunosuppressive activity of YZ001052 in DSS-induced inflammatory bowel disease model in mice. PF-06651600 was used as a positive control compound.
50 g of DSS was added 1000 mL of sterile water to formulate a 5% DSS solution, and the solution was filtered with a 0.22 μm filter membrane. Starting from day 0, the blank group was gave drinking water without DSS, and the other experimental groups were gave drinking water containing 5% DSS. All mice were sacrificed on day 8. After the experiment, the colon was collected, photographed and measured for length. The data were analyzed according to Statistics.

For another experiment, the target named is T1, JAK3 kinase (Homo sapiens, UniProt P52333).
T1 sequence (P52333 1-1124): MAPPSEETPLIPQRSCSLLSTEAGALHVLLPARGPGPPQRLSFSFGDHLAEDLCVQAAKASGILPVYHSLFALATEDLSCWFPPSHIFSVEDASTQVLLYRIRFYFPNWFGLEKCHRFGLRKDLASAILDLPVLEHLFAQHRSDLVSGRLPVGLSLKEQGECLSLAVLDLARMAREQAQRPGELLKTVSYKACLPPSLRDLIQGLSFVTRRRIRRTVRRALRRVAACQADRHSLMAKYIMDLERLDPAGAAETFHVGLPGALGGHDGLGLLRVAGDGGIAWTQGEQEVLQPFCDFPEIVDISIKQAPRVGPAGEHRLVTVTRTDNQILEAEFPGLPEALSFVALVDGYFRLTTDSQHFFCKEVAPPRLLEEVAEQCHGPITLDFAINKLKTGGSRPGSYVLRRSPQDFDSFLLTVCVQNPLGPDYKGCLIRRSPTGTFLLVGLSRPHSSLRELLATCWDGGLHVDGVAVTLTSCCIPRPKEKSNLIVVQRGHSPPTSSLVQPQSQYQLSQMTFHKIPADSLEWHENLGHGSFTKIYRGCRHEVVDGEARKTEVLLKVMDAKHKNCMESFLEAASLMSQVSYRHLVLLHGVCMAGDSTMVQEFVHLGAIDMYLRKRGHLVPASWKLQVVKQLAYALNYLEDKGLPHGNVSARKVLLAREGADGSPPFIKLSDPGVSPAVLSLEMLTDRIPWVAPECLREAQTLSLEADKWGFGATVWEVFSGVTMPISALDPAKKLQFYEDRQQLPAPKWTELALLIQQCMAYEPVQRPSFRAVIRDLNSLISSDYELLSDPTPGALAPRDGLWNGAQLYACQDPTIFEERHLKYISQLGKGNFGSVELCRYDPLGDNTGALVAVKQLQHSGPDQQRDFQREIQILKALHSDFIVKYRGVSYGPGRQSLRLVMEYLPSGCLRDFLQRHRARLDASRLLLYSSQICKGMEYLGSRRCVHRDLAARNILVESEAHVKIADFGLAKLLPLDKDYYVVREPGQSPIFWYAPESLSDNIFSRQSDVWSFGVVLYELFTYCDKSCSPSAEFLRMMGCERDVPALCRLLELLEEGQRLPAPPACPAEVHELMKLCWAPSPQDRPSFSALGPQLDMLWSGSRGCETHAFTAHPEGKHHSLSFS
The experiment in a line: Mobility shift assay, JAK3 kinase inhibitory activity. In kind it is biochemical. Conditions: Caliper EZ Reader.

In experiment [2] the test system is p-STAT5 under IL-15 stimulation in PBMC (JAK-STAT pathway). The experiment in a line: p-STAT5 ELISA in IL-15 stimulated hPBMC cells. In kind it is cell-based, human. To be noted: Homo sapiens, PBMC, 45 min compound, 30 min IL-15, ELISA. The procedure: Based on the mechanism of JAK-STAT pathway, the effect of the compounds on the JAK-STAT pathway were evaluated by using cytokine IL-15 to stimulate hPBMC cells, and using the downstream STAT5 phosphorylation level as the detection index.
1. PBMC cell counting plate: 90 μL PBMC was seeded in a 96-well plate (PBMC cell density 80,000/well).
2. Treatment with test compounds: After cells being seeded, drug treatment was carried out immediately. The drugs to be tested at 5 μL/well (final concentrations 1, 0.5, 0.1, 0.05, 0.01, and 0.005 μM) were incubated at 37° C. for 45 min.
3. Cytokine IL-15 stimulation: The cells were stimulated by 5 μL IL-15, and incubated at 37° C. for 30 min.
4. Protein sample collection: The cells were collected in a centrifuge tube and centrifuged for 5 minutes. The supernatant was discarded and cells were lysed with 1× Cell Extraction Buffer PTR.
5. p-STAT5 detection: Perform detection according to the requirements of the ELISA kit.
Experimental results: IC50 values of compounds on p-STAT5 under IL-15 stimulation in PBMC

The test system of a further experiment is SRBC mouse model. Description: SRBC-induced delayed-type hypersensitivity (DTH) in mice. The format is in vivo, Balb/c mice. Conditions: 100 mg/kg gavage once a day, day 0 to day 6, FIG. 76. The procedure:
Drug formulation: The compound was added to 0.5% CMC-Na solution to formulate a drug suspension (dosage is 10 mg/mL).
Induction and administration of delayed-type hypersensitivity (DTH): 30 male Balb/c mice were weighed and randomly divided into 6 groups according to body weight, with 5 mice in each group. The experimental period lasted for 7 days. On day 0, mice were sensitized by subcutaneous injection of sheep red blood cells (SRBC). The mice were performed gavage administration at 100 mg/kg (once a day) from day 0 to day 6. On day 6, the mice were injected SRBC into the right hind foot pad for challenge. Measurements were taken on the 7th day of the experiment, and the experiment was concluded.
Pharmacodynamic detection indicators of disease models: the detection and observation indicators are the redness and swelling degree and thickness of the paw pads of SRBC-induced mice. The thickness of the right paw was measured on day 6 before the SRBC injection challenge as the baseline. The thickness of the right paw was measured again at the end of the experiment, the difference in paw thickness before and after the second injection was calculated.
Statistical analysis: The experimental data were expressed as mean±standard deviation (Mean±SD). All data were statistically analyzed using T-test, with P<0.05 considered statistically significant.

Experiment [3] deals with collagen-induced arthritis model in mice. Description: Collagen-induced arthritis model in mice (mCIA). In kind it is in vivo, DBA/1J mice. Conditions: 50 mg/kg once a day, FIG. 77. The method, then: 1. Construction of collagen-induced arthritis model in mice (mCIA) Experimental purpose: To test the immunosuppressive activity of YZ001052 in the mCIA model. PF-06651600 was used as a positive control compound.
Complete and incomplete Freund's adjuvants with chicken type II collagen solution were mixed in equal proportions to form emulsions. Except for the blank control group, a mixture of complete Freund's adjuvant and chicken type II collagen solution was injected subcutaneously into the base of the tail and thigh of mice on Day 0. Each mouse was injected subcutaneously with 100 μL at the base of the tail, and injected 50 μL subcutaneously at the base of both thighs (primary immunization). On day 21, mice were injected subcutaneously with 200 μL of a mixture of incomplete Freund's adjuvant and chicken type II collagen as a booster injection (second immunization). Arthritis was considered to occur if the clinical score of at least one limb was >2 points. Paw thickness measurement: Using a vernier caliper to measure the thickness of the left and right hind feet of the mouse and record it, which is the degree of paw swelling. The detection frequency was once every 3 days.

Experiment [4] has as its system mouse model of acute radiation-induced lung injury. Description: Acute radiation-induced lung injury in mice. Conditions: 30 mg/kg q.d., 22.5 Gy whole lung, three weeks after modeling. The format is in vivo, C57BL/6 mice. The procedure: Eighteen female C57BL/6 mice were divided randomly into three groups: blank control group, simple irradiation group, and irradiation+ drug YZ001052 (30 mg/kg q. d) intervention group, with 6 mice in each group.
The mice were anesthetized with 1% sodium pentobarbital by intraperitoneal injection, and irradiated the whole lung with 22.5 Gy in a single shot using 220 KV X-rays through the Small Animal Precision Radiotherapy Research Platform (SARRP). After irradiation, the mice were housed in a normal manner.
Three weeks after modeling, the mice were anesthetized and dissected. The lung tissues were exposed and the left lung was ligated, an open tracheotomy was performed, the lung was lavaged with cold PBS, and the alveolar lavage fluid (BALF) was collected and centrifuged at 4° C.
The supernatant was collected to detect the content of inflammatory factor TNF-α by ELISA.
Resuspend the bronchoalveolar lavage fluid cell pellet in 200 μL PBS for white blood cell (WBC) counting.

Procedure for JAK3 kinase: Mobility shift assay was used to detect the in vitro inhibitory activity of the test compounds (listed below) on JAK3 kinase activity. Cerdulatinib (supplier: selleckchem; Article number: S7634) was used as a positive control compound.
Compound was dissolved in 100% DMSO to formulate a 10 mM stock solution and stored in a −20° C. refrigerator away from light.
(1) 1×Kinase buffer was prepared.
After being gradient dilution to a 100-fold final concentration, 250 nL of solutions were transferred to a 384-well plate using Echo550. 250 nL of 100% DMSO were added to each of the negative control wells and the positive control wells, respectively.
(3) 2.5 times a final concentration of kinase solution was prepared with 1×Kinase buffer. […]
(10) The conversion rate was read by Caliper EZ Reader.
Wherein: Conversion %_sample is the conversion rate reading of the sample; Conversion %_min: the mean value of the negative control wells, representing the conversion rate reading of the wells without enzyme activity; Conversion %_max: the mean value of the positive control wells, representing the conversion rate reading of the wells without compound inhibition; % Inhibition represents the percentage inhibition rate. […]

In the case of `C=CC(=O)N1CCc2c(c(-c3ccnc4[nH]ccc34)nn2C)C1` [YZ001052, 1-(1-methyl-3-(1H-pyrrolo[2,3-b]pyridin-4-yl)-1,4,6,7-tetrahydro-5H-pyrazolo[4,3-c]pyridin-5-yl)prop-2-en-1-one], the colorectal length result in experiment [1] is recorded as “significantly increased”. The results for the IC50 (at JAK3 kinase; in experiment [2]) were 0.25 nM and 10.7 nM, respectively. Further, the “immunosuppressive effect on SRBC-induced delayed-type hypersensitivity (right paw thickness)” value with SRBC mouse model was “significant immunosuppressive effects”. In experiment [3] (CIA mice), the paw swelling result is reported as “improved to varying degrees”. Also, the arthritis score result in experiment [3] (compared with the model group) is “significantly decreased”. Besides, in experiment [4] (FIG. 79), the “TNF-α level in bronchoalveolar lavage fluid” value was “good inhibitory effect”. Moreover, the “number of inflammatory cell infiltration in the lungs (white blood cells in BALF)” value in experiment [4] (FIG. 80) was “significantly reduce”.

Broadly, the IC50 is the concentration at which inhibition is half-maximal.

For the origin of these results see patent US20260085076A1, “CRYSTAL FORM OF AROMATIC HETEROCYCLIC COMPOUND, COMPOSITION THEREOF, PRODUCTION METHOD THEREOF AND USES THEREOF” (Hangzhou Yuhong Pharmaceutical Technology Co., Ltd., priority 2023, published 2026).
